Assay results taken from patent US20060014940A1, “Cloning and characterization of slc26a6, slc26a1, and slc26a2 anion exchangers” (priority 2002, published 2006).

Columns and labels:
rat DTDST = molecular target: T1, rat DTDST (Rattus norvegicus, UniProt O70531); details: Satoh, 1998; cited from earlier work
T1 sequence (O70531 1-739): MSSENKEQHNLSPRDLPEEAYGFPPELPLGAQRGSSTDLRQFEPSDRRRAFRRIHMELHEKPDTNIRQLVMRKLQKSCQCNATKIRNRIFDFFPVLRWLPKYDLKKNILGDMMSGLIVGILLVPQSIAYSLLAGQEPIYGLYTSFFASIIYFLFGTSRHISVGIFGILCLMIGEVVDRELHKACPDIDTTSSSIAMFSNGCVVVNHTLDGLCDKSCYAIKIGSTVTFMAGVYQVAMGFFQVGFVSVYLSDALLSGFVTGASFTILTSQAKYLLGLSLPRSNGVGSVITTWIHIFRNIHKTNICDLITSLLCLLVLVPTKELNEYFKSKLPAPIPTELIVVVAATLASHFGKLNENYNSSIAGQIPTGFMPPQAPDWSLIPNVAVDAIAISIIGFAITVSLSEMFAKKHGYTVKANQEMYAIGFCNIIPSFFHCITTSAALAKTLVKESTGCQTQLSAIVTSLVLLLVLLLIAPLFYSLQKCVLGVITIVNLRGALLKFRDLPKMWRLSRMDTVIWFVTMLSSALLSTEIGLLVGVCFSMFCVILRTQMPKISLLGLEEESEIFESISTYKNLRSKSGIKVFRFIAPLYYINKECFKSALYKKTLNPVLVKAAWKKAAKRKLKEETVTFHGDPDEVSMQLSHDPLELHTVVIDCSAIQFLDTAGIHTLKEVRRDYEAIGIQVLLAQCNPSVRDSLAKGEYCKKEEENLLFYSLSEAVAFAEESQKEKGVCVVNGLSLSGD

mouse SLC26A6b = molecular target: T2, mouse SLC26A6b (Mus musculus, UniProt Q8CIW6, R572P); experiment: Radiolabelled anion uptake/exchange in Xenopus oocytes expressing mouse SLC26A6b; assay type: cell-based
T2 construct: Full-length mouse SLC26A6b and SLC26A 1 cDNAs were cloned into the Xenopus expression vector pGEMHE; expressed in transfected cells; host or cells: Xenopus laevis oocytes injected with in vitro transcribed cRNA (pGEMHE)
T2 sequence (Q8CIW6 24-758 R572P limits assumed): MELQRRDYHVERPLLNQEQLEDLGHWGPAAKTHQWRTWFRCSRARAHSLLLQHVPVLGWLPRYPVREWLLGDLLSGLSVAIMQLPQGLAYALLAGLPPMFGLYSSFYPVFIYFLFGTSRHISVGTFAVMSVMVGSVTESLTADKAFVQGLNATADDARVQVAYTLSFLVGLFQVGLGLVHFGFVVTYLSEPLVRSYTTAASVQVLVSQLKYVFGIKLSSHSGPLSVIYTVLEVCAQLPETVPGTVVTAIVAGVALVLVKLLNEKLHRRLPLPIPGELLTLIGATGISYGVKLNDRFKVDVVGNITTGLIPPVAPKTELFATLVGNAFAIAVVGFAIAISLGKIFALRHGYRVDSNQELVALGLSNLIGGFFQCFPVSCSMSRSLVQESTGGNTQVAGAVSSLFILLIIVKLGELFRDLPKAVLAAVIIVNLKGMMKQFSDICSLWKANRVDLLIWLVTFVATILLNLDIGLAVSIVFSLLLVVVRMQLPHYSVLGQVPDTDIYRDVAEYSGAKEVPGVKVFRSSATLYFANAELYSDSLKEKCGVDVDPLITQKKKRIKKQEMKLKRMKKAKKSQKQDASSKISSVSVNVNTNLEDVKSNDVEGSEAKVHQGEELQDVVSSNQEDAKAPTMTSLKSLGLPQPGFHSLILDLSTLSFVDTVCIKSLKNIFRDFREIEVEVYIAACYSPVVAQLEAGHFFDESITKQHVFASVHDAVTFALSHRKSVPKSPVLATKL
Method: Full-length mouse SLC26A6b and SLC26A 1 cDNAs were cloned into the Xenopus expression vector pGEMHE (Liman et al., 1992). The SLC26A6 and SLC26A1 expression constructs were linearized, and cRNA was transcribed in vitro using T7 RNA polymerase and a […] MMACHINE® transcription kit (Ambion, Inc. of Austin, Tex., United States of America). Defolliculated oocytes were injected with 25 nl to 50 nl of water or with a solution containing cRNA at a concentration of 0.5 μg/μl (12.5 ng to 25 ng per oocyte) using a Nanoliter-2000 injector (WPI Instruments of Sarasota, Fla., United States of America). Oocytes were incubated at 17° C. in 50% Leibovitz's L-15 media supplemented with penicillin/streptomycin (1000 units/ml) and glutamine for 2-3 days for uptake assays.
For sulphate uptake assays, oocytes were pre-incubated for 20 minutes in chloride-free uptake medium (100 mM NMDG gluconate, 2 mM potassium gluconate, 1 mM calcium gluconate, 1 mM magnesium gluconate, 10 mM HEPES-Tris, pH 6.0 or pH 7.5 as indicated), followed by a 60-minute period for uptake in the same medium supplemented with 1 mM K2^35SO4 (40 μCi/ml). The cells were then washed three times in uptake buffer with 5 mM cold K2SO4 to remove tracer activity in the extracellular fluid. The oocytes were dissolved individually in 10% SDS, and tracer activity was determined by scintillation counting. Uptake of chloride, formate, and oxalate was assayed using the same chloride-free uptake solutions, substituting 8.3 mM ^36Cl, 500 μM [^14C]oxalate, or 50 μM [^14C]formate for labeled sulphate.
For sulphate exchange and cis-inhibition experiments, the concentration of NMDG-gluconate in the uptake solution was adjusted to maintain isotonic osmolality, which was confirmed experimentally using a FISKE® osmometer (Fiske Associates, Inc. of Bethel, Conn., United States of America).

## O=C(O)C(=O)O [oxalate]
Rat DTDST
  cis-inhibition of sulphate transport: cis-inhibited
Mouse SLC26A6b; 500 μM [14C]oxalate (FIG. 8A)
  oxalate uptake: 487±50 pmol/oocyte/hour
Mouse SLC26A6b; 10 mM of the anion, 30 minutes (FIG. 7C)
  exchange of SO4 2− with extracellular anion (trans-stimulation of 35SO4 efflux): clearly mediated exchange
